Reference: patent US5945404A, “21-Substituted steroid compound” (priority 1993, dated 1999)
“And” between values parts separate entries of the source, which are not always exact repeats. Equal values may be shown once. Read-outs that look alike come from different tables or passages of the source.

How the values were obtained:
[1] = tested on: croton oil-induced granuloma; test: Croton Oil-induced Granuloma (granuloma pouch); assay type: in vivo, male Sprague-Dawley rats; details: for inhibition in vivo at 0.01 mg / inhibition in vivo at 0.1 mg / inhibition in vivo at 1 mg: Rattus norvegicus, 168 h
Procedure: Groups of 5 male Sprague-Dawley rats each weighing 160-180 g were used. Under ether anesthesia, the dorsum of animals was closely clipped, and air sac was formed by injecting air (20 ml) subcutaneously. Next day cotton seed oil containing 1% croton oil was injected into the air sac. Drugs to be tested were suspended in the cotton seed oil containing 1% croton oil, and administered. After 7 days, the blood was taken from the animal under ether anesthesia. Then, the granuloma pouch fluid (exudate) was collected, and the fluid volume was measured. The pouch wall formed around granuloma and thymus were also excised and weighed.

granuloma = test: Inhibitory Effects on Granuloma Growth (Paper Disk Method); assay type: in vivo, male Sprague-Dawley rats; details: Rattus norvegicus, topical, 168 h, rat, paper disk; ointment 0.1%, 50 mg once a day, 7 days; read-out: Weight of granuloma, per cent of change of the controls
Procedure: Ointment to be tested was prepared usign white soft paraffin as the base and containing dexamethasone at 0.1% concentration.
Groups of 5 male Sprague-Dawley rats each weighing 150-170 g were used. Under ether anesthesia, the dorsum of animals was closely clipped, and medianly incised. After each one pre-weighed paper disk (8-mm diameter, 1-mm thick, weighing about 30 mg; Toyo-Roshi filter paper) was inserted subcutaneously into both sides of the dorsal incision, the incision was sutured. In order to prevent bacterial infection, penicillin G potassium salt (2,000 units) per rat was intramascularly injected after the surgery. Base or ointment to be tested (50 mg each) was rubbed carefully into the skin over the paper disk inserted site, for 30 seconds once a day for the duration of 7 days. Rats were slipped plastic cangs on to prevent them from licking the drug applied sites. On the 8th day of the test, rats were sacrificed under ether anesthesia, and granulomas were carefully excised. Granulomas were dried at 40° C. for 24 h, and their dry weights were recorded.
Inhibitory effects of dexamethasone derivatives on the weight increase of granuloma of experimental animals as compared with those of control animals are shown as per cent of inhibition ov er the control in Table 1. Figures wihth asterisks in the table indicate signfiicant difference. The same will be applied to the following other tables.

[2] = 0.01 mg/rat, 7 days, read-out: Effects on granuloma weight, per cent of inhibition over the control
[3] = 0.01 mg/rat, 7 days, read-out: Effects on pouch fluid (exudate) volume, per cent of inhibition over the control
[4] = 0.1 mg/rat, 7 days, read-out: Effects on granuloma weight, per cent of inhibition over the control
[5] = 0.1 mg/rat, 7 days, read-out: Effects on pouch fluid (exudate) volume, per cent of inhibition over the control
[6] = 1.0 mg/rat, 7 days, read-out: Effects on granuloma weight, per cent of inhibition over the control
[7] = 1.0 mg/rat, 7 days, read-out: Effects on pouch fluid (exudate) volume, per cent of inhibition over the control
[8] = read-out: Effects on granuloma weight, per cent of inhibition over the control

CC(=O)OC[C@H]1O[C@@H](OCC(=O)[C@H]2[C@H](C)C[C@H]3[C@@H]4C[C@H](F)C5=CC(=O)C=C[C@]5(C)[C@@]4(F)[C@@H](O)C[C@@]32C)[C@H](OC(C)=O)[C@@H](OC(C)=O)[C@@H]1OC(C)=O [Compound 113β, glucosyldiflucortolone (acetyl derivative)]
inhibition in vivo at 0.01 mg [1, 2]: 47.4 ± 11% | inhibition in vivo at 0.01 mg [1, 3]: 90.5 ± 6.6% | inhibition in vivo at 0.1 mg [1, 4]: 60.8 ± 9.3% | inhibition in vivo at 0.1 mg [1, 5]: 97.1 ± 0.5% | inhibition in vivo at 1 mg [1, 6]: 90.5 ± 0.6% | inhibition in vivo at 1 mg [1, 7]: 97.5 ± 0.7%

CCCCC(=O)OCC(=O)[C@H]1[C@H](C)C[C@H]2[C@@H]3C[C@H](F)C4=CC(=O)C=C[C@]4(C)[C@@]3(F)[C@@H](O)C[C@@]21C [Diflucortolone valerate, reference compound]
inhibition in vivo at 0.01 mg [1, 8]: 12.8 ± 5.1% | inhibition in vivo at 1 mg [1, 8]: 66 ± 7.1%

Cc1ccc(C(=O)OC[C@H]2O[C@H](OCC(=O)[C@@]3(O)[C@H](C)C[C@H]4[C@@H]5CCC6=CC(=O)C=C[C@]6(C)[C@@]5(F)[C@@H](O)C[C@@]43C)[C@H](OC(=O)c3ccc(C)cc3)[C@@H](OC(=O)c3ccc(C)cc3)[C@H]2OC(=O)c2ccc(C)cc2)cc1 [Compound 14α]
change in vivo at 0.1 %, 50 mg (granuloma): 5.7 ± 1.9%

Cc1ccc(C(=O)OC[C@H]2O[C@@H](OCC(=O)[C@@]3(O)[C@H](C)C[C@H]4[C@@H]5CCC6=CC(=O)C=C[C@]6(C)[C@@]5(F)[C@@H](O)C[C@@]43C)[C@H](OC(=O)c3ccc(C)cc3)[C@@H](OC(=O)c3ccc(C)cc3)[C@@H]2OC(=O)c2ccc(C)cc2)cc1 [Compound 4β]
change in vivo at 0.1 %, 50 mg (granuloma): -7.9 ± 5%

CC(=O)N[C@H]1[C@H](OCC(=O)[C@@]2(O)[C@H](C)C[C@H]3[C@@H]4CCC5=CC(=O)C=C[C@]5(C)[C@@]4(F)[C@@H](O)C[C@@]32C)O[C@H](CO)[C@H](O)[C@@H]1O [Compound 45β, N-acetylgalactosaminyldexamethasone]
change in vivo at 0.1 %, 50 mg (granuloma): -28.1 ± 3.5%

CC(=O)N[C@H]1[C@H](OCC(=O)[C@@]2(O)[C@H](C)C[C@H]3[C@@H]4CCC5=CC(=O)C=C[C@]5(C)[C@@]4(F)[C@@H](O)C[C@@]32C)O[C@H](COC(C)=O)[C@@H](OC(C)=O)[C@@H]1OC(C)=O [Compound 34β, N-acetylglucosaminyldexamethasone]
change in vivo at 0.1 %, 50 mg (granuloma): -21.3 ± 3.9%

C[C@@H]1C[C@H]2[C@@H]3CCC4=CC(=O)C=C[C@]4(C)[C@@]3(F)[C@@H](O)C[C@]2(C)[C@@]1(O)C(=O)CO[C@@H]1O[C@H](C(=O)O)[C@H](O)[C@H](O)[C@H]1O [Compound 65β, β-galacturonyldexamethasone]
change in vivo at 0.1 %, 50 mg (granuloma): -33 ± 3.3%

C[C@@H]1C[C@H]2[C@@H]3CCC4=CC(=O)C=C[C@]4(C)[C@@]3(F)[C@@H](O)C[C@]2(C)[C@@]1(O)C(=O)CO[C@@H]1O[C@H](C(=O)O)[C@@H](O)[C@H](O)[C@H]1O [Compound 55β, β-glucuronyldexamethasone]
change in vivo at 0.1 %, 50 mg (granuloma): -37.4 ± 7.1%

Cc1ccc(C(=O)OC[C@H]2O[C@@H](OCC(=O)[C@H]3[C@H](C)C[C@H]4[C@@H]5C[C@H](F)C6=CC(=O)C=C[C@]6(C)[C@@]5(F)[C@@H](O)C[C@@]43C)[C@H](OC(=O)c3ccc(C)cc3)[C@@H](OC(=O)c3ccc(C)cc3)[C@@H]2OC(=O)c2ccc(C)cc2)cc1 [Compound 109β, Glucosyldiflucortolone (p-toluoyl derivative)]
change in vivo at 0.1 %, 50 mg (granuloma): -0.2 ± 3.7%

C[C@@H]1C[C@H]2[C@@H]3C[C@H](F)C4=CC(=O)C=C[C@]4(C)[C@@]3(F)[C@@H](O)C[C@]2(C)[C@H]1C(=O)CO[C@@H]1O[C@H](COC(=O)c2ccccc2)[C@@H](OC(=O)c2ccccc2)[C@H](OC(=O)c2ccccc2)[C@H]1OC(=O)c1ccccc1 [Compound 110β, glucosyldiflucortolone (benzoyl derivative)]
inhibition in vivo at 0.01 mg [1, 2]: 16.8 ± 7.1% | inhibition in vivo at 0.01 mg [1, 3]: 34.4 ± 8.9% | inhibition in vivo at 0.1 mg [1, 4]: 58.7 ± 1.4% | inhibition in vivo at 0.1 mg [1, 5]: 79.6 ± 8.5% | inhibition in vivo at 1 mg [1, 6]: 70.3 ± 1.9% | inhibition in vivo at 1 mg [1, 7]: 97.2 ± 0.5%

COC(=O)[C@H]1O[C@@H]2OC(C)(OCC(=O)[C@@]3(O)[C@H](C)C[C@H]4[C@@H]5CCC6=CC(=O)C=C[C@]6(C)[C@@]5(F)[C@@H](O)C[C@@]43C)O[C@@H]2[C@@H](OC(C)=O)[C@@H]1OC(C)=O (stereo partly drawn) [Compound 54']
change in vivo at 0.1 %, 50 mg (granuloma): -44.8 ± 2.4%

CCCC(=O)O[C@]1(C(=O)COC(C)=O)CC[C@H]2[C@@H]3C[C@H](F)C4=CC(=O)C=C[C@]4(C)[C@@]3(F)[C@@H](O)C[C@@]21C [Diflupredonate, reference compound]
Effects on thymus weight, per cent of inhibition over the control thymus weight ([1]; 0.01 mg/rat, 7 days): 14.7 ± 10.4 per cent | Effects on thymus weight, per cent of inhibition over the control thymus weight ([1]; 0.1 mg/rat, 7 days): 71.2 ± 2.9 per cent | Effects on thymus weight, per cent of inhibition over the control thymus weight ([1]; 1.0 mg/rat, 7 days): 71.8 ± 3.2 per cent | inhibition in vivo at 0.01 mg [1, 2]: -11 ± 23.1% | inhibition in vivo at 0.01 mg [1, 3]: 17.4 ± 13.5% | inhibition in vivo at 0.1 mg [1, 4]: 35 ± 10.3% | inhibition in vivo at 0.1 mg [1, 5]: 65.3 ± 12.1% | inhibition in vivo at 1 mg [1, 6]: 78.8 ± 5% | inhibition in vivo at 1 mg [1, 7]: 96.2 ± 1.2%

COC(=O)[C@H]1O[C@@H](OCC(=O)[C@@]2(O)[C@H](C)C[C@H]3[C@@H]4CCC5=CC(=O)C=C[C@]5(C)[C@@]4(F)[C@@H](O)C[C@@]32C)[C@H](OC(C)=O)[C@@H](OC(C)=O)[C@H]1OC(C)=O [Compound 64β]
change in vivo at 0.1 %, 50 mg (granuloma): -32.5 ± 0.5%

Cc1ccc(C(=O)OC[C@H]2O[C@@H](OCC(=O)[C@@]3(O)[C@H](C)C[C@H]4[C@@H]5CCC6=CC(=O)C=C[C@]6(C)[C@@]5(F)[C@@H](O)C[C@@]43C)[C@H](OC(=O)c3ccc(C)cc3)[C@@H](OC(=O)c3ccc(C)cc3)[C@H]2OC(=O)c2ccc(C)cc2)cc1 [Compound 14β]
change in vivo at 0.1 %, 50 mg (granuloma): -8.7 ± 7.2%

CCCCC(=O)O[C@]1(C(=O)CO)[C@@H](C)C[C@H]2[C@@H]3CCC4=CC(=O)C=C[C@]4(C)[C@@]3(F)[C@@H](O)C[C@@]21C [Betamethasone valerate, reference compound]
Effects on thymus weight, per cent of inhibition over the control thymus weight ([1]; 1.0 mg/rat, 7 days): 37.0 ± 3.0 per cent and 58.9 ± 3.3 per cent | inhibition in vivo at 1 mg [1, 6]: 18.7 ± 11.7% | inhibition in vivo at 1 mg [1, 7]: 23.9 ± 12.1%

Cc1ccc(C(=O)OC[C@H]2O[C@@H](OCC(=O)[C@@]3(O)[C@@H](C)C[C@H]4[C@@H]5CCC6=CC(=O)C=C[C@]6(C)[C@@]5(F)[C@@H](O)C[C@@]43C)[C@H](OC(=O)c3ccc(C)cc3)[C@@H](OC(=O)c3ccc(C)cc3)[C@@H]2OC(=O)c2ccc(C)cc2)cc1 [Compound 91β, Glucosylbetamethasone (per Tol)]
inhibition in vivo at 0.01 mg [1, 2]: 17.1 ± 6.7% | inhibition in vivo at 0.01 mg [1, 3]: 25.3 ± 5.3% | inhibition in vivo at 0.1 mg [1, 4]: 6.9 ± 5.1% | inhibition in vivo at 0.1 mg [1, 5]: 18.4 ± 6.1% | inhibition in vivo at 1 mg [1, 6]: 4.3 ± 8.2% | inhibition in vivo at 1 mg [1, 7]: 18.9 ± 8.8%

C[C@H]1C[C@H]2[C@@H]3CCC4=CC(=O)C=C[C@]4(C)[C@@]3(F)[C@@H](O)C[C@]2(C)[C@@]1(O)C(=O)CO[C@@H]1O[C@H](COC(=O)c2ccccc2)[C@@H](OC(=O)c2ccccc2)[C@H](OC(=O)c2ccccc2)[C@H]1OC(=O)c1ccccc1 [Compound 100β, glucosylbetamethasone (benzoyl derivative)]
inhibition in vivo at 0.01 mg [1, 2]: 11 ± 6.5% | inhibition in vivo at 0.01 mg [1, 3]: 20.8 ± 11.7% | inhibition in vivo at 0.1 mg [1, 4]: 4.1 ± 11.3% | inhibition in vivo at 0.1 mg [1, 5]: 17.5 ± 5.9% | inhibition in vivo at 1 mg [1, 6]: 60.5 ± 5.8% | inhibition in vivo at 1 mg [1, 7]: 69.4 ± 6.7%

CCC(=O)O[C@]1(C(=O)COC(C)=O)[C@@H](C)C[C@H]2[C@@H]3CCC4=CC(=O)C=C[C@]4(C)[C@@]3(F)[C@@H](O)C[C@@]21C [Betamethasone acetate propionate, reference compound]
Effects on granuloma weight, per cent of inhibition over the control ([1]; 0.01 mg/rat, 7 days): 21.2 ± 6.4 per cent | Effects on granuloma weight, per cent of inhibition over the control ([1]; 0.1 mg/rat, 7 days): 26.0 ± 6.9 per cent | Effects on pouch fluid (exudate) volume, per cent of inhibition over the control ([1]; rat, in vivo): 27.6 ± 8.1 and 43.6 ± 4.7

Diflurasone acetate [reference compound]
Effects on granuloma weight, per cent of inhibition over the control ([1]; 0.01 mg/rat, 7 days): -13.1 ± 13.3 per cent | Effects on granuloma weight, per cent of inhibition over the control ([1]; 0.1 mg/rat, 7 days): 4.0 ± 10.5 per cent | Effects on granuloma weight, per cent of inhibition over the control ([1]; 1.0 mg/rat, 7 days): 11.7 ± 12.4 per cent

C[C@@H]1C[C@H]2[C@@H]3C[C@H](F)C4=CC(=O)C=C[C@]4(C)[C@@]3(F)[C@@H](O)C[C@]2(C)[C@H]1C(=O)CO[C@@H]1O[C@H](COC(=O)c2ccc(Cl)cc2)[C@@H](OC(=O)c2ccc(Cl)cc2)[C@H](OC(=O)c2ccc(Cl)cc2)[C@H]1OC(=O)c1ccc(Cl)cc1 [Compound 112β, glucosyldiflucortolone (p-chlorobenzoyl derivative)]
inhibition in vivo at 0.01 mg [1, 2]: 15.9 ± 6.9% | inhibition in vivo at 0.01 mg [1, 3]: 36.1 ± 9.2% | inhibition in vivo at 0.1 mg [1, 4]: 27.1 ± 2.4% | inhibition in vivo at 0.1 mg [1, 5]: 43.7 ± 2.5% | inhibition in vivo at 1 mg [1, 6]: 61.3 ± 2.2% | inhibition in vivo at 1 mg [1, 7]: 93.1 ± 1.6%
